Experimental data reported in paper PMC11198769, “Enhancement of transcription efficiency by TAR-Tat system increases the functional expression of human olfactory receptors” (PLOS ONE, 2024).

Tests used:
Test in all cases: Comprehensive analysis (screening) of hORs against n-hexanal
Format in all cases: cell-based
[1] = biological target: T1, OR52N4 (Homo sapiens, UniProt Q8NGI2); settings: OR52N4, 500 μM n-hexanal, with the TAR-Tat system (hOR/pHEK), n = 1
T1 construct: Lucy tag (N); expressed in transfected cells; host or cells: Flp-In T-REx-293 cells stably expressing RTP1S, Gαolf and Ric8-b
T1 sequence (Q8NGI2 1-321): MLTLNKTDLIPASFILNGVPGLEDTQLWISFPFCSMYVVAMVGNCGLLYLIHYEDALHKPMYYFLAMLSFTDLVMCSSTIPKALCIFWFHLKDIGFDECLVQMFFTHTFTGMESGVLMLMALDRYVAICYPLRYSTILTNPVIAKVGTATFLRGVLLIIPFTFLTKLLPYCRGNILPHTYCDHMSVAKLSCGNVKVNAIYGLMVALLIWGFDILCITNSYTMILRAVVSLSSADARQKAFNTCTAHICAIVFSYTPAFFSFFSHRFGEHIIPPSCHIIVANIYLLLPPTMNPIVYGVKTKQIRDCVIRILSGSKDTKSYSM
Description: (§1) Transfection was performed as described in the “hOR assay,” but 12.5 ng of 379 hOR plasmids (hOR/pBApo and hOR/pHEK) was transfected with the 12.5 ng pGlosensor^TM-22F cAMP biosensor plasmid (Promega) in 384 plates per well. After loading the GloSensor cAMP substrate and preincubation, the assay buffer was added (30 μL/well). After 10 min of equilibration, luminescence was measured (L0). Then, 50 mM n-hexanal, which was diluted with 10% DMSO/assay buffer, was added (4.7 μL/well). After 9 min, luminescence was measured (L9min). All the L9min values were subtracted by the L0 value (ΔL).

[2] = biological target: T2, OR10H3 (Homo sapiens, UniProt O60404); settings: OR10H3, 500 μM n-hexanal, with the TAR-Tat system (hOR/pHEK), n = 1
T2 construct: Lucy tag (N); expressed in transfected cells; host or cells: Flp-In T-REx-293 cells stably expressing RTP1S, Gαolf and Ric8-b
T2 sequence (O60404 1-316): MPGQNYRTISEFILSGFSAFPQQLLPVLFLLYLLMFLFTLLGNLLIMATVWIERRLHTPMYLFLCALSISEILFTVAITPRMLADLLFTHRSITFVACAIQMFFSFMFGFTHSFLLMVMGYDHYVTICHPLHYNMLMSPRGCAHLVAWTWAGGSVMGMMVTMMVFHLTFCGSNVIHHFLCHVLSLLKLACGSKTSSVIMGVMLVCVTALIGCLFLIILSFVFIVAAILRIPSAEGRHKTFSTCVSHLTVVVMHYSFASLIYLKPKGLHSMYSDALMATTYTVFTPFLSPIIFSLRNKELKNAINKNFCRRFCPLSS
Description: as §1

[3] = biological target: T3, OR10A2 (Homo sapiens, UniProt Q9H208); settings: OR10A2, 500 μM n-hexanal, with the TAR-Tat system (hOR/pHEK), n = 1
T3 construct: Lucy tag (N); expressed in transfected cells; host or cells: Flp-In T-REx-293 cells stably expressing RTP1S, Gαolf and Ric8-b
T3 sequence (Q9H208 1-303): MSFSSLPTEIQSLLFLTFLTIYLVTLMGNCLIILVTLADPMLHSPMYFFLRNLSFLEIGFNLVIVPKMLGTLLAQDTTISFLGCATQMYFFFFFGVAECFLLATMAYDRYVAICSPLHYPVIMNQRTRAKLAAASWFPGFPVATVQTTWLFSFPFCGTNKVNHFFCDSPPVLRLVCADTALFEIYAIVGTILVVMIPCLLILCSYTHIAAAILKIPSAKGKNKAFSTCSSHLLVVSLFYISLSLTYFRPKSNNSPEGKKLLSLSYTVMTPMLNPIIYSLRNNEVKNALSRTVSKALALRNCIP
Description: as §1

[4] = biological target: T4, OR8B3 (Homo sapiens, UniProt Q8NGG8); settings: OR8B3, 500 μM n-hexanal, with the TAR-Tat system (hOR/pHEK), n = 1
T4 construct: Lucy tag (N); FLAG (N); Rho tag (N); expressed in transfected cells; host or cells: Flp-In T-REx-293 cells stably expressing RTP1S, Gαolf and Ric8-b
T4 sequence (Q8NGG8 1-313): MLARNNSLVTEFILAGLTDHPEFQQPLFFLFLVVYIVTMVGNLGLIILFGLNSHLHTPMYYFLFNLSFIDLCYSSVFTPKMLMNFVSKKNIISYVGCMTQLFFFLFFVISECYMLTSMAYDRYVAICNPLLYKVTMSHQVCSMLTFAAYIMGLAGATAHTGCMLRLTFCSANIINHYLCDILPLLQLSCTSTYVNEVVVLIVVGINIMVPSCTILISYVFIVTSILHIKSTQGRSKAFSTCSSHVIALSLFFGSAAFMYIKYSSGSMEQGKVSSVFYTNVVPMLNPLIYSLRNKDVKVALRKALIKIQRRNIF
Description: as §1

[5] = biological target: T5, OR56B1 (Homo sapiens, UniProt Q8NGI3); settings: OR56B1, 500 μM n-hexanal, with the TAR-Tat system (hOR/pHEK), n = 1
T5 construct: Lucy tag (N); expressed in transfected cells; host or cells: Flp-In T-REx-293 cells stably expressing RTP1S, Gαolf and Ric8-b
T5 sequence (Q8NGI3 1-324): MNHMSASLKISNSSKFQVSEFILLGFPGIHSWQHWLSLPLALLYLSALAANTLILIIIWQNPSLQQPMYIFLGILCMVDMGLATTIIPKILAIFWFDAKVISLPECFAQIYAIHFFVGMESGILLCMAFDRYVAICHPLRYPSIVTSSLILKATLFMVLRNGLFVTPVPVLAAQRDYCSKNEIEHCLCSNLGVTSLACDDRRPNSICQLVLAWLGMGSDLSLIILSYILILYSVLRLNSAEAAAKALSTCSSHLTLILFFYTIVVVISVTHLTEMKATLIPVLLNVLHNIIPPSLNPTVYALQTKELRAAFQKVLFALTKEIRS
Description: as §1

[6] = biological target: T6, OR8B4 (Homo sapiens, UniProt Q96RC9); settings: OR8B4, 500 μM n-hexanal, with the TAR-Tat system (hOR/pHEK), n = 1
T6 construct: Lucy tag (N); FLAG (N); Rho tag (N); expressed in transfected cells; host or cells: Flp-In T-REx-293 cells stably expressing RTP1S, Gαolf and Ric8-b
T6 sequence (Q96RC9 1-309): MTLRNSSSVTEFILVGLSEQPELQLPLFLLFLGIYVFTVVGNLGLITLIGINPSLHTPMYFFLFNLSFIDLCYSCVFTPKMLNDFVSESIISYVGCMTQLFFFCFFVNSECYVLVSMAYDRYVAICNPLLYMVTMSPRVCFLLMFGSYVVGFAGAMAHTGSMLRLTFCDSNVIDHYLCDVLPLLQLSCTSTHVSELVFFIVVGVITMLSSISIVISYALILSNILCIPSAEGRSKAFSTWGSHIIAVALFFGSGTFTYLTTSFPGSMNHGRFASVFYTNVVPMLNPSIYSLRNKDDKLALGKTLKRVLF
Description: as §1

response value (ΔL) [1]: > 500 | response value (ΔL) [2]: > 500 | response value (ΔL) [3]: > 500 | response value (ΔL) [4]: > 500 | response value (ΔL) [5]: > 500 | response value (ΔL) [6]: > 500
Structure (SMILES): CCCCCC=O [n-hexanal]
